According to PubChem BioAssay AID434951 (Broad Institute, 2010):
Calls of active or inactive are those of the source.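 How the source made its calls: active means a fitted half-maximal concentration EC50 for the rise in nuclear signal no higher than ten times the top dose tested; inconclusive means flat fit with activity between 30% and 70%, or unusable fit; inactive means EC50 beyond ten times the top dose.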

Biological target: Hypoxia-inducible factor 1-alpha (Homo sapiens) (UniProt Q16665)
Assay: activators of HIF1alpha nuclear accumulation, confirmation, imaging, fluorescence, U2OS GFP-HIF1alpha (AID 434951)
Settings: U2OS GFP-HIF1alpha nuclear intensity, high-content imaging

Hypoxia-inducible factor 1-alpha (Homo sapiens), sequence (Q16665 whole entry, looked up): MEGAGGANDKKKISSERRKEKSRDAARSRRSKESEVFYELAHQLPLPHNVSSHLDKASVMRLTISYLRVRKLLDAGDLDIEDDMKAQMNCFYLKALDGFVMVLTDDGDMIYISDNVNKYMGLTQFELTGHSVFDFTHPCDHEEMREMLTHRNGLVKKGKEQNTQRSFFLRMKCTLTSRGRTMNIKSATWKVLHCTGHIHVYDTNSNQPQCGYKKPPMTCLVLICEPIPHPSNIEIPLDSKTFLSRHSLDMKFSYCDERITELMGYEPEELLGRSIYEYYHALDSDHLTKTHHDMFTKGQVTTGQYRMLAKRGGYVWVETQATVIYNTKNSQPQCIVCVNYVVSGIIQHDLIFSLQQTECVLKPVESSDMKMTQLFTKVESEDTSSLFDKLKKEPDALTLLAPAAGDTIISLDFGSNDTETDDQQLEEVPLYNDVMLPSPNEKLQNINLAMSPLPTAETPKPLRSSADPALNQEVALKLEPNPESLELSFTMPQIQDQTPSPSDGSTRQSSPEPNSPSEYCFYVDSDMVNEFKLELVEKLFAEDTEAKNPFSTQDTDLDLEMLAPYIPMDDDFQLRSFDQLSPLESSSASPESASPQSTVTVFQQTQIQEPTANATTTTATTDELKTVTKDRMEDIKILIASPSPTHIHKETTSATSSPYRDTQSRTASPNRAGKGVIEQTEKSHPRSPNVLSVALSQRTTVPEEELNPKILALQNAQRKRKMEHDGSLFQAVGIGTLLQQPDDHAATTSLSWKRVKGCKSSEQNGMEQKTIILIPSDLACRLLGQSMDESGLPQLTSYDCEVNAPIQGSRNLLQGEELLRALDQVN

| Compound | EC50 |
| --- | --- |
| CC/C(=N\N1CCCCCC1)c1c(O)n(-c2ccc(C)cc2)c(=O)[nH]c1=O | > 35 µM (inactive) |
| COc1ccc(C(NC(C)=O)c2ccc3cccnc3c2O)c(OC)c1 (configuration not stated) | 10.9 µM |
| CCN(Cc1ccccc1)C(=O)CCNS(=O)(=O)c1ccc2c(c1)CC(C)N2C(C)=O (configuration not stated) | > 35 µM (inactive) |
| Cn1nc(C(F)(F)F)cc1C(=O)NC1CCCCCC1 | > 35 µM (inactive) |
| CC(=O)NC(c1ccc(Cl)cc1Cl)c1ccc2cccnc2c1O (configuration not stated) | 12.8 µM |
| CC(C)=CCSc1nnc([C@@H](N)Cc2c[nH]c3ccccc23)o1 | > 35 µM (inactive) |
| C(=N\Nc1nc2ccccc2[nH]1)/c1cccc2nccnc12 | 15.8 µM |
| CCCCCN(C(=O)CCC(=O)OCC(=O)c1ccc(C(C)CC)cc1)c1c(N)n(CCCC)c(=O)[nH]c1=O (configuration not stated) | > 35 µM (inactive) |
| COc1ccc2c(c1)-c1nc(NC(=O)c3ccco3)sc1CC2 | > 35 µM (inactive) |
| COc1ccc(Nc2nc(N/N=C/c3ccc(N(C)C)cc3)nc(C)c2[N+](=O)[O-])cc1 | > 35 µM (inactive) |
| Cc1cccc2[nH]c(CN(C)C(=O)C3CCC(=O)N(C4CC4)C3)nc12 (configuration not stated) | > 35 µM (inactive) |
| COc1cccc(/C=N/NC(=O)c2[nH]nc3c2CCc2ccccc2-3)c1O | 1.94 µM |
| CC(C)CC(NC(=O)c1ccccc1NC(=O)c1ccccc1)C(=O)O (configuration not stated) | > 35 µM (inactive) |
| CCCCc1nnc(NC(=O)c2ccc3[nH]c(=O)c(=O)[nH]c3c2)s1 | > 35 µM (inactive) |
| Cc1ccc(S(=O)(=O)c2nc(-c3ccccc3Cl)oc2N(C)C)cc1 | > 35 µM (inactive) |
| COc1ccc(-c2cc(C(F)(F)F)nc(S(=O)(=O)CCCC(=O)Nc3cc(C)on3)n2)cc1OC | > 35 µM (inactive) |
| Cc1cccc2sc(NNC(=O)c3ccc(S(=O)(=O)N4CCc5ccccc5C4)cc3)nc12 | 11.2 µM |
| O=C(Nc1nc(-c2ccccn2)cs1)c1cc(Cl)ccc1[N+](=O)[O-] | 9.95 µM |
| CCC(=O)NC(c1cccs1)c1ccc2cccnc2c1O (configuration not stated) | 5.48 µM |
| c1ccc(N=Nc2ccc3cccccc2-3)cc1 | 33.1 µM |
| CC1CCN(S(=O)(=O)c2ccc3c4c2CC(=O)N4CC(C)S3)CC1 (configuration not stated) | > 35 µM (inactive) |
| c1ccc(CSc2nnc(-c3ccco3)o2)cc1 | > 35 µM (inactive) |
| CCCCn1c(N)c(N(CC)C(=O)c2cc(OC)cc(OC)c2)c(=O)[nH]c1=O | > 35 µM (inactive) |
| Nc1nc(-c2ccccn2)nc(N)c1Cc1ccc(Cl)cc1Cl | 6.12 µM |
| O=C(N/N=C/c1cc(Br)ccc1O)c1cccc(N2CCCC2=O)c1 | 13.5 µM |
| Cc1cc(C)c2nc(N3CCN(C(=O)c4ccco4)CC3)sc2c1 | > 35 µM (inactive) |

| Compound | EC50 |
| --- | --- |
| CCCOC(=O)NC1C(NC(=O)OCCC)N(C)C(=O)N1C (configuration not stated) | > 35 µM (inactive) |
| COC(=O)c1cn(C)c2ccc(S(=O)(=O)N3CCCCC3)cc2c1=O | > 35 µM (inactive) |
| CCCc1sc(N/N=C/c2ccccn2)nc1-c1ccc(F)cc1 | 6.01 µM |
| CCOC(=O)c1sc(Nc2cccc(Cl)c2)nc1C | > 35 µM (inactive) |
| COc1ccccc1NC(=O)c1nc(S(=O)(=O)Cc2ccccc2)ncc1Cl | > 35 µM (inactive) |
| COc1nccc(C(F)(F)F)c1C(=O)NC(=O)Nc1ccccc1 | > 35 µM (inactive) |
| O=C(C1=NN[C@@H]2C(=O)N(c3cccc(C(F)(F)F)c3)C(=O)[C@H]12)C(c1ccccc1)c1ccccc1 | > 35 µM (inactive) |
| COc1cccc(Nc2n[nH]c(=S)s2)c1 | > 35 µM (inactive) |
| Cc1ccc(/C=N\Nc2nc3ccc(Cl)cc3[nH]2)o1 | > 35 µM (inactive) |
| CC(C(=O)Nc1ccccc1-c1ccccc1)N1CCN(C(=O)c2ccccc2)CC1 (configuration not stated) | > 35 µM (inactive) |
| O=C(N/N=C/c1ccc(F)cc1)c1cc(-c2ccc3c(c2)OCO3)n[nH]1 | 16.2 µM |
| COc1ccc(N2CCN(C(=O)COc3ccc4c(C)c(C)c(=O)oc4c3C)CC2)cc1 | > 35 µM (inactive) |
| CC12CC3(C)CC(C)(C1)CC(C(=O)NCCc1ccc(S(N)(=O)=O)cc1)(C2)C3 | > 35 µM (inactive) |
| COC(=O)C1=C(C)N(Cc2ccc(OC)cc2)C(=O)C1 | > 35 µM (inactive) |
| O=C(NCCCn1ccnc1)c1cc(-c2ccccc2)on1 | 3.8 µM |
| C(=N\Nc1nc2ccccc2[nH]1)/c1cccc2cccnc12 | 12 µM |
| Cc1ccc(N2CC(=O)Nc3c(sc4nc(C)cc(C)c34)C2=O)cc1 | > 35 µM (inactive) |
| Cc1ccc(C2(C)NC(=O)N(CC(=O)Nc3ccccc3N3CCCC3)C2=O)cc1 (configuration not stated) | > 35 µM (inactive) |
| C=C(C)CNC(=O)c1ccc2nc(Cc3ccc(OC)cc3)oc2c1 | > 35 µM (inactive) |
| O=C1OCc2cc(NC(=O)C34CC5CC(CC(C5)C3)C4)ccc21 | > 35 µM (inactive) |
| COc1ccccc1N=Nc1ccc(O)c2ncccc12 | 7.58 µM |
| COc1cccc(/C=N/NC(=O)c2ccc([N+](=O)[O-])cc2Cl)c1O | > 35 µM (inactive) |
| O=C(NNC(=O)C(O)(c1ccccc1)c1ccccc1)C1CC1 | > 35 µM (inactive) |
| Cc1ccccc1N=Nc1ccc(O)c2ncccc12 | 5.04 µM |
| COc1cc2c(cc1OC)C(C)N(S(=O)(=O)c1ccc(Cl)nc1)CC2 (configuration not stated) | > 35 µM (inactive) |
| CCOC(=O)c1c(C)[nH]c(C(=O)N/N=C\c2ccccc2O)c1C | 5.66 µM |

| Compound | EC50 |
| --- | --- |
| CN1CCN(Cc2cc(COCc3ccccc3)c3cccnc3c2O)CC1 | 7.82 µM |
| CCOc1cc(N2CCOCC2)c(OCC)cc1NC(C)C(=O)N1CCC(C)CC1 (configuration not stated) | > 35 µM (inactive) |
| CCOc1nc(Nc2ccc(OC)cc2)nc(OCC)n1 | > 35 µM (inactive) |
| FC(F)(F)c1cnc(N2CCN(C(=S)NCc3ccccc3)CC2)c(Cl)c1 | > 35 µM (inactive) |
| COc1cc(NC(=O)CN2C(=O)c3ccccc3Sc3ccc(C(=O)N4CCOCC4)cc32)cc(OC)c1OC | > 35 µM (inactive) |
| Cc1nnc(SCc2cccc(Cl)c2)n(N)c1=O | > 35 µM (inactive) |
| CCN(CC)c1ccc(/C=N/NC(=O)c2c(Cl)cnn2C)c(O)c1 | 2.05 µM |
| CCCNC(=O)c1cc(-c2ccco2)on1 | 5.66 µM |
| O=C1CSCN1c1ccc(Cl)cc1 | > 35 µM (inactive) |
| Cc1ccc(C)c(OCC(=O)O/N=C(\N)c2cccc([N+](=O)[O-])c2)c1 | > 35 µM (inactive) |
| CCN1/C(=C/c2ccc3cc(C)ccc3[n+]2CC)Sc2ccccc21 | 13.1 µM |
| Cc1ccc(-c2nc(CS(=O)(=O)CC(=O)NC3CCC(C)CC3)c(C)o2)cc1 (configuration not stated) | > 35 µM (inactive) |
| Cc1ccc(S(=O)(=O)N(C)CC(=O)NCCCn2ccnc2)cc1 | > 35 µM (inactive) |
| CN(c1cccc(Cl)c1)S(=O)(=O)c1cccc(C(=O)Nc2nc3ccccc3[nH]2)c1 | > 35 µM (inactive) |
| Clc1ccc(CSc2ccc(-c3ccccn3)nn2)cc1 | 9.44 µM |
| CC1CCN(Cc2c(C(=O)N/N=C/c3cc(Cl)ccc3O)nnn2-c2nonc2N)CC1 | 13.9 µM |
| Cc1ccc(/C=N/NC(=O)CN2CCN(Cc3ccccc3Cl)CC2)o1 | > 35 µM (inactive) |
| COC(=O)CCCC1=CC2=CC(=O)C(C)(OC(=O)c3cccs3)C(=O)C2=CN1Cc1ccc2c(c1)OCO2 (configuration not stated) | > 35 µM (inactive) |
| COc1ccc(C(=O)C2CCCN(C(=O)C3CCOCC3)C2)cc1OC (configuration not stated) | > 35 µM (inactive) |
| O=C(O)c1ccc(N2C(=O)CSC2=S)cc1 | > 35 µM (inactive) |
| O=[N+]([O-])c1ccc(O)c(/C=N/Nc2ccccn2)c1 | 6.39 µM |
| CCN(CC)S(=O)(=O)c1ccc(N/N=C/c2ccc(O)cc2O)nc1 | 0.715 µM |
| CCOC(=O)c1ccc(S(=O)(=O)NNC(=O)COc2ccccc2C)cc1 | > 35 µM (inactive) |
| COC(=O)C1=Nc2ccccc2/C1=C\c1c(O)n(-c2cc(OC)ccc2OC)c(=O)[nH]c1=O | > 35 µM (inactive) |
| Cc1nnc(-c2ccccc2)nc1N(C)C | > 35 µM (inactive) |
| COC(=O)Nc1ccc(=O)n(Cc2c(Cl)cccc2Cl)c1 | > 35 µM (inactive) |

| Compound | EC50 |
| --- | --- |
| COCc1c(C(=O)N/N=C(\C)c2ccc(Cl)s2)nnn1-c1nonc1N | > 35 µM (inactive) |
| Fc1cccc(/C=N/Nc2nccnc2Cl)c1 | > 35 µM (inactive) |
| CC1CN/C(=C\C(=O)c2ccc(Br)cc2)C(=O)N1 (configuration not stated) | > 35 µM (inactive) |
| CNC(=O)C1CC(=O)N(c2ccc(OCC(=O)N3CCCC3)cc2)C1 (configuration not stated) | > 35 µM (inactive) |
| Cc1ccn2cc(-c3ccc(O)c(O)c3)nc2c1 | > 35 µM (inactive) |
| COc1cc2ncnc(NCc3cccs3)c2cc1OC | > 35 µM (inactive) |
| CC(C)(C)NC(=O)CN(Cc1ccc2c(c1)OCO2)C(=O)CNS(=O)(=O)c1ccc(F)cc1 | > 35 µM (inactive) |
| COc1ccc(-n2c(C)cc(C(=O)CCl)c2C)cc1 | 12.4 µM |
| Cc1cccc(C(=O)O/N=C(\N)c2ccc(Cl)cc2)c1 | > 35 µM (inactive) |
| COc1ccc(CC(=O)Nc2cccc(-c3nnc(-c4ccccc4)o3)c2)cc1OC | > 35 µM (inactive) |
| COCc1nnc(NC(=O)c2cc(Cl)ccc2OC)s1 | > 35 µM (inactive) |
| Cn1nnc2cc(C(=O)N3CCC(c4ccccc4)C3)ccc21 (configuration not stated) | > 35 µM (inactive) |
| COc1ccc2c(c1)c(C(=O)CN1CCc3ccccc3C1)c(C)n2C | > 35 µM (inactive) |
| Cc1ccccc1-c1nc2ccccc2c(=O)n1/N=C/c1ccccc1[N+](=O)[O-] | > 35 µM (inactive) |
| CSc1nc(C)cc(C)c1C#N | > 35 µM (inactive) |
| O=C(NCCSc1c[nH]c2ccccc12)c1ccc(Br)o1 | > 35 µM (inactive) |
| Cc1cccc(OCCn2cccc2/C=C2/C(=O)NC(=O)N(Cc3ccco3)C2=O)c1 | > 35 µM (inactive) |
| CCCOc1ccc(/C=N/NC(=O)CSc2ccccn2)cc1OC | > 35 µM (inactive) |
| Cc1ccc(NC(=S)N(Cc2cccs2)Cc2cc3cccc(C)c3[nH]c2=O)cc1 | > 35 µM (inactive) |
| COc1ccc(CCNC(=O)CC(NC(=O)c2ccccc2Cl)c2ccccc2)cc1 (configuration not stated) | > 35 µM (inactive) |
| Cn1c(SCC(=O)Nc2ccccc2)nnc1-c1ccc(NC(=O)CCc2ccccc2)cc1 | > 35 µM (inactive) |
| Cc1occc1C(=O)NC1CCCCCC1 | > 35 µM (inactive) |
| CCOC(=O)c1c(C)[nH]c(C)c1S(=O)(=O)N1c2ccccc2CC1C (configuration not stated) | > 35 µM (inactive) |
| O=C(NCCc1csc(-c2cccc(F)c2)n1)c1ccco1 | > 35 µM (inactive) |
